Test results from patent US7268139B2, “Methods of promoting osteogenesis” (Scios, Inc., priority 2002, dated 2007).

Assays:
[1] = system: closed femur fractures in female retired breeder Sprague-Dawley rats; assay: Closed femur fracture healing in rats, histology; format: in vivo, rat; details: for Fracture callus histology: two weeks post-fracture
Method: Retired breeder female Sprague-Dawley rats were purchased from Taconic Farms. The rats were housed in pairs and given food and water ad libitum. A total of 124 rats were purchased for these experiments (Table 4). However, only 65 rats were used for the final set of experiments as described in Table 4. Drugs were first administered to the rats by gavage using PEG300 (Sigma) as a carrier (0.5 ml per kg). […] The p38 MAP kinase inhibitor used in the experiments is compound 25, Table B. Rofecoxib was obtained by pulverizing Vioxx pills (Merck).
(§1) Rats were anesthetized with a ketamine-xylazine mixture. The right hindlimb was shaved, and cleansed with betadine. A medial parapatellar incision was made through the skin and underlying muscle to the distal end of the femur. The patella was dislocated laterally to expose the femoral condyles. A 20 g needle was used to drill a hole into the distal end of the femur, between the condyles, and then used to ream the femoral canal. A 0.81 mm diameter stainless steel wire was then inserted into the femoral condyle and tamped into the proximal end of the femur. The rod was then trimmed as close as possible to the femoral condyles with wire cutters. The incision was closed in two layers with resorbable Vicryl sutures. A mid-shaft transverse fracture was made in the right femur using a three-point bending device as described previously (Bonnarens, F. and Einhorn, T. A., J. Orthop. Res. 2:97-101 (1984)).
Femurs were dissected from rats at 2, 4, 6, and 8 weeks as detailed in Appendix A. Soft tissue was dissected from the femurs and the femurs were fixed overnight in buffered formalin. The femurs were then embedded in polymethylmethacrylate (PMMA) following standard procedures. Longitudinal sections (˜200 um thick) were cut from the PMMA blocks and ground and polished to a thickness of approximately 50-100 um. The sections were then stained with Van Gieson's picrofuschin and Stevenel's Blue. […] Sections were photographed with an Olympus BH2 microscope.

[2] = system: closed femur fractures in female retired breeder Sprague-Dawley rats; assay: Closed femur fracture healing in rats, radiographic analysis; format: in vivo, rat; details: for Radiographic score, Mean: Group C rats, score 0 to 4
Method: Closed femur fractures were made in female retired breeder Sprague-Dawley rats. The rats were given oral doses of the p38 MAP kinase inhibitor (compound 25, Table B)(30 mg/kg) once or twice per day and either vehicle only (control) or rofecoxib (Vioxx, 3 mg/kg, once a day) as a positive control for fracture inhibition.
(§2) Retired breeder female Sprague-Dawley rats were purchased from Taconic Farms. The rats were housed in pairs and given food and water ad libitum. A total of 124 rats were purchased for these experiments (Table 4). However, only 65 rats were used for the final set of experiments as described in Table 4. Drugs were first administered to the rats by gavage using PEG300 (Sigma) as a carrier (0.5 ml per kg). Rats were initially gavaged with drugs 6 hours after surgery (between 4 and 6 PM on day 1) and then twice/day afterwards for 5 days (between 6-8 AM and again between 5-7 PM). The p38 MAP kinase inhibitor used in the experiments is compound 25, Table B. Rofecoxib was obtained by pulverizing Vioxx pills (Merck).
as §1
Radiographs were made using an HP Faxitron and Kodak MINR2000 mammography film. Radiographs were photographed with and Olympus C-3040 digital camera for figure preparation. The 4 week post-fracture radiographs from all the rats that had survived to 4 weeks in Group C (rats 60-124) and which were not comminuted, infected, or destabilized were scored as follows. One point was assigned to each radiograph in which a cortex of the fracture callus appeared bridged and/or where the cortical bone fracture site appeared to be bridged by new bone. Thus a radiograph could have a minimal score of 0 or a maximal score of 4.

fracture healing in rats = assay: Prior experiments: fracture healing in rats treated with a COX-2 inhibitor; format: in vivo, rat
From the text: The prior set of experiments examining the effects of COX-2-selective NSAIDs on fracture healing used retired breeder male Sprague-Dawley rats with an average size of approximately 600 g. To stabilize the femur fractures in these animals, a stainless steel rod with a diameter of 1.1 mm was used. This same diameter rod was continually used during the initial phases of this study even though 250-300 g retired breeder female Sprague-Dawley rats were used.

[3] = system: closed femur fractures in female retired breeder Sprague-Dawley rats; assay: Closed femur fracture healing in rats, torsional mechanical testing; format: in vivo, rat
Method: Torsional mechanical testing was performed on the fractured (right) and contralateral (left) femurs from control, rofecoxib (3 mg/kg/day); p38 MAP kinase inhibitor (30 mg/kg/day), and p38 MAP kinase inhibitor (2×30 mg/kg/day). The stabilizing rods were removed from the femurs prior to testing and the femurs were wrapped in saline soaked gauze to prevent dehydration prior to testing. The ends of the femurs were potted in hex nuts with Wood's metal and the peak torque and angle failure determined using an MTS servohydraulic mechanical testing machine and a 20 Nm reaction torque load cell as per standard procedures (Simon, A. M. et al., J. Bone Miner. Res. 17:963-976 (2002)). Femur and fracture callus dimensions and gage length were measured before and after mechanical testing using digital calipers. The values obtained were used to calculate torsional rigidity, and shear stress as described (Simon, A. M. et al., J. Bone Min. Res., in press (2002)). Finally, the data was normalized as the percentage of the fractured femur relative to the contralateral femur for each animal. This helped to reduce animal-to-animal variability.
as §2, §1
Rats with oblique, comminuted, or infected fractures were not used for mechanical testing (see Appendix A). Both femora were removed and cleaned of all soft tissue leaving the fracture callus undisturbed and then immediately processed for mechanical testing. The samples were wrapped in saline soaked gauze to prevent dehydration between steps. Measurements of the femora were taken using digital calipers to determine femur length and external callus dimensions. The intramedullary pin was removed from the fractured femur. The femoral ends were potted in 1-inch hexnuts using a low melt temperature metal (Wood's metal, Alfa Aesar, Ward Mill, Mass.). Once potted, the gage length (L) of each femur was measured. Torsional testing was conducted using a servohydraulic testing machine (MTS, Eden, Praire, Minn.) with a 20 Nm reaction torque cell (Interface, Scottsdale, Ariz.). The testing was carried out to failure at a rate of 2°/sec and a data recording rate of 20 Hz. Both the fractured and intact femora were tested in internal rotation in proper anatomic orientation. The peak torque and angle at failure were calculated from the load-deformation curves. Internal fracture callus dimensions were measured after mechanical testing. […]

[4] = system: mouse model of RA (collagen type II arthritis); assay: Murine collagen type II arthritis, early and advanced disease; format: in vivo
Method: A p38α MAP kinase inhibitor (compound 162, Table B) was evaluated to determine whether a p38 inhibitor could modulate cartilage and bone destruction in a mouse model of RA. Induction of RA was achieved using bovine type II cartilage (100 ug/kg, subcutaneous on days 0 and 21) and bacterial lipopolysaccharide (50 ug/mouse, intraperitoneal on day 22).
Oral treatment was vehicle alone (1% PEG 400, bid) or the p38 inhibitor (90 mg/kg bid). The duration of treatment was 10 and 20 days in mice with early onset or advanced disease, respectively. Treatment was initiated in mice with early onset or advanced disease. Disease state was determined by clinical scoring performed in a blinded protocol that assigned a maximum per paw value of 3 based upon degree of erythema and swelling observed. Early or advanced disease was judged by clinical scoring, 1.6+0.6 (mean+/−std dev) on day 24 and 9.1±2.6 on day 30, respectively.

[5] = Group C, 4 weeks post-fracture, rofecoxib 3 mg/kg/day
[6] = Groups A and B, 8 weeks post-fx, rofecoxib 3 mg/kg/day
[7] = advanced disease, 90 mg/kg bid oral, 20 days
[8] = Group C, 4 weeks post-fracture, 30 mg/kg/day
[9] = Group C, 4 weeks post-fracture, 2×30 mg/kg/day
[10] = Groups A and B (rats 1-57), twice-a-day treated rats
[11] = Groups A and B, 4 weeks post-fx, 30 mg/kg/day
[12] = Groups A and B, 6 weeks post-fx, 30 mg/kg/day
[13] = Groups A and B, 6 weeks post-fx, 2×30 mg/kg/day
[14] = Groups A and B, 8 weeks post-fx, 2×30 mg/kg/day

CS(=O)(=O)c1ccc(C2=C(c3ccccc3)C(=O)OC2)cc1 [Rofecoxib, rofecoxib, reference compound]
Fibrous non-unions ([1]; rofecoxib, 5 days of treatment): development of fibrous non-unions in some of the rofecoxib treated rats | Fracture callus histology ([1]; rofecoxib 3 mg/kg once a day): less woven bone formation was observed | Radiographic score, Mean ([2]; 4 weeks post-fracture, rofecoxib 3 mg/kg oral once a day for 5 days): 0.83 | Bridging of the fracture in radiographs ([2]; 4 weeks post-fracture, rofecoxib 3 mg/kg once a day): little or no bridging was evident | Fracture healing (fracture healing in rats): dramatically impaired | NSS = normalized shear stress [3, 5]: 13 ± 9 | NTR = normalized torsional rigidity [3, 5]: 19 ± 9 | NPT = normalized peak torque ([3]; Group C, 4 weeks post-fracture, rofecoxib 3 mg/kg/day, percentage of fractured femur relative to contralateral femur): 32 ± 3 | NPT = normalized peak torque [3, 6]: 57 ± 42 | NSS = normalized shear stress [3, 6]: 16 ± 8 | NTR = normalized torsional rigidity [3, 6]: 100 ± 82

COc1cc2c(cc1C(=O)N1CCC(Cc3ccc(F)cc3)CC1)c(C(=O)C(=O)N(C)C)cn2C [compound 25]
Histological analysis of fracture healing (summary) ([1]; 30 mg/kg once or twice per day): enhanced fracture healing by increasing and/or accelerating calcified cartilage formation as well as new bone formation | Amount of osteoclasts within the fracture callus ([1]; not quantified): appeared to approximate levels found in control rats | Fracture callus histology ([1]; 30 mg/kg once per day): a near normal amount of woven bone but more than normal amounts of chondrocytes | Fracture callus histology ([1]; 30 mg/kg twice per day): advanced healing with the fracture gap almost filled with newly formed woven bone | Radiographic scores compared with control and rofecoxib ([2]; 4 week post-fracture radiographs, 30 mg/kg once or twice per day): significantly higher scores than the control or rofecoxib treated rats | Radiographic score, Mean ([2]; 4 weeks post-fracture, 30 mg/kg oral once per day for 5 days): 3.2 | Radiographic score, Mean ([2]; 4 weeks post-fracture, 30 mg/kg oral twice per day for 5 days): 3.75 | Effect on fracture healing (overall) ([2]; oral 30 mg/kg once or twice per day): does not negatively affect fracture healing and can actually enhance or accelerate the healing process | cartilage and bone healing by histological assessment [4, 7]: evidence of cartilage and bone healing | serum cartilage oligomeric matrix protein (COMP) [4, 7]: reduced serum cartilage oligomeric matrix protein | osteoclast number ([4]; advanced disease, compared to baseline and vehicle treated groups): reduced osteoclast number | clinical scoring ([4]; treatment initiated in advanced disease, 90 mg/kg bid oral, 20 days, vehicle 9.1±2.2): 4.9±1.7 | Normalized peak torque compared with rofecoxib and control ([3]; Group C, 4 weeks post-fracture): significantly increased normalized peak torque relative to rofecoxib treated rats but not relative to the control animals | NSS = normalized shear stress [3, 8]: 15 ± 8 | NTR = normalized torsional rigidity [3, 8]: 28 ± 24 | NPT = normalized peak torque ([3]; Group C, 4 weeks post-fracture, 30 mg/kg/day, percentage of fractured relative to contralateral femur): 50 ± 11 | NSS = normalized shear stress [3, 9]: 10 ± 4 | NTR = normalized torsional rigidity [3, 9]: 61 ± 55 | NPT = normalized peak torque ([3]; Group C, 4 weeks post-fracture, 2×30 mg/kg/day, percentage of fractured relative to contralateral femur): 48 ± 14 | normalized peak torque [3, 10]: ~150% | normalized torsional rigidity [3, 10]: ~150% | NPT = normalized peak torque [3, 11]: 57 | NSS = normalized shear stress [3, 11]: 14.1 | NTR = normalized torsional rigidity [3, 11]: 69 | NPT = normalized peak torque [3, 12]: 85 ± 17 | NSS = normalized shear stress [3, 12]: 36 ± 11 | NTR = normalized torsional rigidity [3, 12]: 109 ± 52 | NPT = normalized peak torque [3, 13]: 97 | NSS = normalized shear stress [3, 13]: 63 | NTR = normalized torsional rigidity [3, 13]: 126 | NPT = normalized peak torque [3, 14]: 158 ± 46 | NSS = normalized shear stress [3, 14]: 45 ± 1 | NTR = normalized torsional rigidity [3, 14]: 156 ± 68

C[C@@H]1CN(Cc2ccc(F)cc2)[C@@H](C)CN1C(=O)c1cc2c(C(=O)C(=O)N(C)C)c[nH]c2cc1Cl [compound 162]
Histological analysis of joint lesion morphology ([4]; treatment initiated at onset of disease, 90 mg/kg bid oral, 10 days): dramatic reduction in all aspects of joint lesion morphology including reduced cartilage and bone erosions | clinical scoring ([4]; treatment initiated at onset of disease, 90 mg/kg bid oral, 10 days, mean ± std dev, vehicle 7.0±3.4): 2.4±1.5
